In US20210267978A1, “NANOPARTICLE FORMULATIONS OF IKE AND METHODS OF USE THEREOF” (The Trustees of Columbia University in the City of New York, priority 2018, published 2021):
Where two headings read alike, the source gives them in different places.

How the values were obtained:
[1] = Pharmacokinetic analysis in NCG mice bearing SUDHL6 xenografts (plasma and tumor, LC-MS); format: in vivo; details: SUDHL6-xenograft NCG mice; for AUC(0-t) / Cmax / Tmax / half-life / concentration at 24 h: mouse; for AUC(0-t) / Cmax / Tmax / half-life / concentration at 24 h / Tlast: single dose 50 mg/kg IP; for concentration at 24 h: read-out: Clast
Procedure: IKE was dissolved in 5% DMSO/95% HBSS at pH 4 to create a 5 mg/mL solution or 3 mg/mL solution. 5% DMSO/95% HBSS at pH 4 was used as vehicle 1. IKE PEG-PLGA nanoparticles and unfunctionalized PEG-PLGA nanoparticles (without IKE) (vehicle 2) prepared with a NanoAssemblr were dialyzed with deionized water overnight, and the water was changed at least twice. Dialyzed IKE-PEG-PLGA nanoparticles and unfunctionalized PEG-PLGA nanoparticles were concentrated by Amicon Ultra-15 Centrifugal Filter Units to create a solution with 80 mg/mL PEG-PLGA nanoparticles. All above solutions were sterilized by filtering through a 0.2 μm syringe filter.
NCG mice 6-weeks of age were injected with 10 million SUDHL-6 cells subcutaneously. Visible tumors appeared after 2 weeks. Tumor size was measured by electronic caliper every 2 days and calculated using the formula: 0.5×length×width^2. After another 2 weeks, mice were randomly separated into group of 3 mice per cage with roughly tumor size (1200 mm^3). Mice were dosed at 50 mg/kg IKE, 22 mg/kg IKE, 22 mg/kg IKE PEG-PLGA nanoparticles (equal to 600 mg/kg PEG-PLGA) using IP at one time and samples were collected at 0, 1, 2, 3, 4, 6, and 24 h with three mice per time point. Mice were dosed with Vehicle 1 and Vehicle 2 (600 mg/kg PEG-PLGA) by IP and samples were collected at 24 h. Mice were euthanized using a CO2 gas chamber before xenograft dissection and cardio puncture. Plasma samples were collected and analyzed as described above. Tumors were dissected and divided into 6 segments, frozen on dry ice, and stored at −80° C. Before IKE extraction, tumor tissue samples were thawed at room temperature and weighed. A 2.5-fold ratio of volume of phosphate-buffered saline (PBS) (mL/g) was added to the sample and homogenized using Bead Ruptor 4 at speed 4 for 30 sec. The homogenization step was repeated until the samples were homogenized well (final weight/volume was 0.4 g/mL). 100 μL of homogenized tissue (equal to 40 mg) was added to a new microfuge tube, 900 μL of acetonitrile was added. The samples were mixed for at least 5 minutes by rotating on a shaker and were sonicated for at least 30 sec prior to centrifugation for 10 min at 4,000×g and 4° C. The supernatant was removed and dried on the GeneVac overnight on the HPLC setting. After drying, the samples were resuspended in 100 μL of methanol and analyzed on the LC-MS with each sample analyzed twice. Technical replicates were averaged. The concentration of IKE in the sample was determined by comparison against a standard curve of IKE in the range of 25 to 2,500 ng/mL. Pharmacodynamic analysis of ferroptosis biomarkers is described in the RT-qPCR, glutathione, immunofluorescence, and lipidomics sections below. Pharmacokinetics parameters of IKE were assessed using Prism fitted with Lognormal of one phase exponential decay.

[2] = test system: SUDHL6 xenograft tumor tissue; assay: Reduced glutathione measurement in mouse tumor tissue after one IKE dose; format: in vivo, NCG mice; details: single dose IKE 50 mg/kg, starting at 4 hours
[3] = test system: SUDHL6 xenograft tumor tissue; assay: Immunofluorescence on frozen tumor sections from efficacy study (COX-2, MDA, 8-OHdG); format: in vivo, NCG mice
Procedure: NCG mice, 6-weeks old, were injected with 10 million SUDHLO-6 cells subcutaneously. The mice were treated after the tumor size reached 100 mm^3. Mice were separated randomly into treatment groups and dosed with 23 mg/kg IKE, 40 mg/kg IKE, 23 mg/kg IKE PEG-PLGA nanoparticles (equal to 700 mg/kg PEG-PLGA), vehicle 1 (based on volume), and vehicle 2 (700 mg/kg PEG-PLGA) once daily by IP for 14 days. Tumor volume was measured daily with electronic caliper and calculated using the formula: 0.5×length×width^2. 3 h after the final dosage, mice were euthanized with CO2 and tumor tissue was dissected, weighed, divided into 4-6 segments, frozen, and stored at −80° C. Tumor volume change was analyzed in Prism using one-way ANOVA. Tumor tissues were analyzed as described in the RT-qPCR, immunofluorescence, TBARS, and lipidomics sections below.
Tumor tissues were fixed in 4% paraformaldehyde (PFA) for 24 h at 4° C. followed by washing with PBS three times. The tissues were perfused in 30% sucrose for 24 h at 4° C. for cryo-protection. The samples were embedded in OCT cryostat sectioning medium, and then moved directly into a cryostat. After equilibration of temperature, frozen tumor tissues were cut into 5 μm thick sections. Tissue sections were mounted on to poly-L-lysine coated slides by placing the cold sections onto warm slides. Slides were stored at −80° C. until staining. For staining, slides were warmed to room temperature followed by washing with PBS twice. A hydrophobic barrier pen was used to draw a circle on each slide. The slides were permeabilized with PBS/0.4% Triton X-100 twice before non-specific-binding blocking by incubating the sections with 10% goat serum (ThermoFisher 50197Z) for 30 minutes at room temperature. The sections were separately incubated with mouse anti-MDA mAb 1F83 (1:1000 dilution), anti-cyclooxygenase 2 (COX 2, AKA PTGS2) antibody (Abcam, ab15191, 1:200 dilution), or anti-8-OH-dG (DNA/RNA damage) antibody (Abcam, ab62623, 1:200 dilution) overnight at 4° C. in humidified chambers. Sections were washed with PBST for twice before incubating with goat anti-mouse IgG H&L (Alexa Fluor 647) (Abcam, ab150115, 1:1000 dilution) or goat anti-rabbit IgG H&L highly cross-absorbed secondary antibody (Alexa Fluor488, Thermo Fisher Scientific, A-11034, 1:1000) at room temperature for 1 h. Slides were then washed twice with PBST. ProLong Diamond antifade mountant with DAPI (ThermoFisher P36962) was added onto slides, which were then covered with the coverslips, sealed by clear fingernail polish and observed under confocal microscopy. All images were captured on a Zeiss LSM 800 confocal microscope at Plan-Apochromat 63×/1.40 Oil DIC objective with constant laser intensity for all analyzed samples. The intensity above threshold of the fluorescent signal of the bound antibodies was analyzed using NIH ImageJ software. Data were expressed as fold change comparing with the vehicle.

## CC(C)Oc1ccc(C(=O)Cn2ccnc2)cc1-n1c(CN2CCN(C(=O)COc3ccc(Cl)cc3)CC2)nc2ccccc2c1=O [IKE, Imidazole ketone erastin]
[1]; single dose 50 mg/kg i.p.
  highest plasma concentration: 5.2 µg/mL
  highest tumor accumulation: 2.5 µg/mL
[1]; plasma
  AUC(0-t): 10900 ng·h/mL
  Cmax: 5180 ng/mL
  Tmax: 1.35 h
  half-life: 1.83 h
  concentration at 24 h: 30 ng/mL
  Tlast: 24 h
[1]; tumor tissue
  AUC(0-t): 9860 ng·h/mL
  Cmax: 2520 ng/mL
  Tmax: 3.3 h
  half-life: 3.5 h
  concentration at 24 h: 283 ng/mL
  Tlast: 24 h
[2]
  GSH depletion in tumor tissue: over 50%
[3]; 23 mg/kg daily for 14 days
  increase in 8-OHdG intensity (immunofluorescence): 1.8 fold
  increase in COX-2 intensity (immunofluorescence): 2.0 fold
  increase in MDA intensity (immunofluorescence): 1.8 fold
[3]; 40 mg/kg daily for 14 days
  increase in 8-OHdG intensity (immunofluorescence): 2.2 fold
  increase in COX-2 intensity (immunofluorescence): 2.8 fold
  increase in MDA intensity (immunofluorescence): 2.0 fold
